Results as given in ChEMBL document CHEMBL1128858, “Z-()-1-azabicyclo[2.2.1]heptan-3-one, O-(3-aryl-2-propynyl) oximes as potential m1-subtype selective muscarinic agonists” (Bioorg Med Chem Lett, 1995).

Legend:
[1] = biological target: T1, Muscarinic acetylcholine receptor (Rattus norvegicus) (UniProt P08482+P08483+P08485+P08911+P10980); experiment: Ratio of QNB/CMD binding affinities to predict agonistic efficacy at muscarinic receptor; assay type: protein assay
[2] = biological target: Muscarinic acetylcholine receptor; experiment: Binding affinity towards muscarinic receptor using [3H]quinuclidinyl benzilate (QNB) to label antagonist sites in membrane preparations from rat neocortex
[3] = biological target: Muscarinic acetylcholine receptor; experiment: Binding affinity towards muscarinic receptor using [3H]cis-methyldioxolane (CMD) to label agonist sites in membrane preparations from rat neocortex; assay type: tissue-based
[4] = biological target: T1, Muscarinic acetylcholine receptor (Rattus norvegicus); experiment: Binding affinity towards muscarinic receptor using [3H]cis-methyldioxolane (CMD) to label agonist sites in membrane preparations from rat neocortex at 1 uM; assay type: tissue-based
[5] = biological target: T1, Muscarinic acetylcholine receptor (Rattus norvegicus); experiment: Binding affinity towards muscarinic receptor using [3H]quinuclidinyl benzilate (QNB) to label antagonist sites in membrane preparations from rat neocortex at 100 nM
[6] = biological target: T2, Muscarinic acetylcholine receptor M2 (Homo sapiens) (UniProt P08172); experiment: Inhibitory activity against forskolin-stimulated accumulation of cyclic adenosine monophosphate (cAMP) in CHO cells expressing human m2 receptor (max. concentration. 1 mM); assay type: functional, cell-based
T2 sequence (whole entry): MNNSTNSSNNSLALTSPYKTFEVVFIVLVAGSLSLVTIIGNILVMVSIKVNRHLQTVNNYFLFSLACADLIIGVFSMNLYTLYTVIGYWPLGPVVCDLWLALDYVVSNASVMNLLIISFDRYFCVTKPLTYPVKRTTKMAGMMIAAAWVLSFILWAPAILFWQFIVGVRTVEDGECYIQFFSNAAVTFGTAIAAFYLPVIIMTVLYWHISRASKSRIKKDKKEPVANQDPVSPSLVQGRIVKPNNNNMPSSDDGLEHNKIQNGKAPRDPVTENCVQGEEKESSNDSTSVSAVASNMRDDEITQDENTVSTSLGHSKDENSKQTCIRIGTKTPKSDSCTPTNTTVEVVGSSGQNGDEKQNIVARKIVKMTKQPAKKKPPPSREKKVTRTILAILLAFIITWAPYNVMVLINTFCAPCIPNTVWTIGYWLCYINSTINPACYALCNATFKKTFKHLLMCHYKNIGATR

[7] = biological target: T3, Muscarinic acetylcholine receptor M5 (Homo sapiens) (UniProt P08912); experiment: Ability to stimulate inositol phosphate(PI) accumulation in CHO cells expressing human m5 receptor (max. concentration. 100 uM); assay type: functional, cell-based
T3 sequence (whole entry): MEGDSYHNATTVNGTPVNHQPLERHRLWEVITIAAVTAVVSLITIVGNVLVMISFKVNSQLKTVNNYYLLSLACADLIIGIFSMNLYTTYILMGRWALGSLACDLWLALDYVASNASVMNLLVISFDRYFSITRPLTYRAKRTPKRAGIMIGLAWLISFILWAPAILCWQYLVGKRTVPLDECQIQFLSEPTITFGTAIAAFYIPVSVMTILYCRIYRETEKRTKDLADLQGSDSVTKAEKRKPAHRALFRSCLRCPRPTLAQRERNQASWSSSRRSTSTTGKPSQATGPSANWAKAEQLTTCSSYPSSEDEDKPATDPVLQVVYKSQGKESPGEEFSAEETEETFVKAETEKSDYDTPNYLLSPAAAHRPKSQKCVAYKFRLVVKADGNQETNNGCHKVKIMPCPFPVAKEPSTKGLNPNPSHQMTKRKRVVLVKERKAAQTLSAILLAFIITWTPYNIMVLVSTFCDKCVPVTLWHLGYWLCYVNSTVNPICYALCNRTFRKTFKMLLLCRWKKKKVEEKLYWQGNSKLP

[8] = biological target: T4, Muscarinic acetylcholine receptor M4 (Homo sapiens) (UniProt P08173); experiment: Inhibitory activity against forskolin-stimulated accumulation of cyclic adenosine monophosphate (cAMP) in CHO cells expressing human m4 receptor (max. concentration. 1 mM); assay type: functional, cell-based
T4 sequence (whole entry): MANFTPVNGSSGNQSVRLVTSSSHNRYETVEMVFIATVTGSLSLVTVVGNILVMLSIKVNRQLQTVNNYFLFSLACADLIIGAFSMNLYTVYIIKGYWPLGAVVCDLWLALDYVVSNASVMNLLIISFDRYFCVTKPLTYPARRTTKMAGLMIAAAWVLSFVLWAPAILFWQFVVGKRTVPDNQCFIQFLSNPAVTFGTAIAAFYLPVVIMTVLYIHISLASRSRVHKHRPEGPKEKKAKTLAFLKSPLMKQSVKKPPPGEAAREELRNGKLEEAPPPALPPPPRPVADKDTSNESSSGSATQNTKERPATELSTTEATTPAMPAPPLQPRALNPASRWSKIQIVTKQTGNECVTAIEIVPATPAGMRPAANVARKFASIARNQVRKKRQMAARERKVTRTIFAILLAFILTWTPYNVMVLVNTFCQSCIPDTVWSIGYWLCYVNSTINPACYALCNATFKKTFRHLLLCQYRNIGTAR

[9] = biological target: T1, Muscarinic acetylcholine receptor (Rattus norvegicus); experiment: Binding affinity towards muscarinic receptor using [3H]cis-methyldioxolane (CMD) to label agonist sites in membrane preparations from rat neocortex at 100 nM; assay type: tissue-based

Ratio [1]	IC50 [2] [nM]	IC50 [3] [nM]	SMILES	other results
125	11089	89	Cc1ccc(C#CCO/N=C2\CN3CCC2C3)cc1 (stereo not given)	–
159	4443	28	Fc1ccccc1C#CCO/N=C1\CN2CCC1C2 (stereo not given)	–
204	6092	30	Fc1ccc(C#CCO/N=C2\CN3CCC2C3)cc1 (stereo not given)	–
186	5195	28	Cc1cccc(C#CCO/N=C2\CN3CCC2C3)c1 (stereo not given)	–
132	4925	37	Fc1cccc(C#CCO/N=C2\CN3CCC2C3)c1 (stereo not given)	–
226	6399	28	O=[N+]([O-])c1cccc(C#CCO/N=C2\CN3CCC2C3)c1 (stereo not given)	–
134	4237	32	FC(F)(F)c1cccc(C#CCO/N=C2\CN3CCC2C3)c1 (stereo not given)	–
–	–	–	C(#Cc1ccc2c(c1)OCCO2)CO/N=C1\CN2CCC1C2 (stereo not given)	inhibition [4]: 39%; inhibition [5]: 0%
–	–	–	C[N+](C)(C)CCOC(N)=O	inhibition [6]: 58%; PI [7]: 100%; inhibition [8]: 60%
250	6927	28	COc1cccc(C#CCO/N=C2\CN3CCC2C3)c1 (stereo not given)	inhibition [6]: 0%; PI [7]: 11%; inhibition [8]: 0%
110	2547	23	C(#Cc1ccc2c(c1)OCO2)CO/N=C1\CN2CCC1C2 (stereo not given)	–
81	17658	219	COc1ccccc1C#CCO/N=C1\CN2CCC1C2 (stereo not given)	–
119	13101	110	COc1ccc(C#CCO/N=C2\CN3CCC2C3)cc1 (stereo not given)	–
107	1305	12	Clc1ccccc1C#CCO/N=C1\CN2CCC1C2 (stereo not given)	–
–	–	–	Clc1cc(Cl)cc(C#CCO/N=C2\CN3CCC2C3)c1 (stereo not given)	inhibition [4]: 53%; inhibition [5]: 18%
–	–	–	FC(F)(F)c1cc(C#CCO/N=C2\CN3CCC2C3)cc(C(F)(F)F)c1 (stereo not given)	inhibition [4]: 55%; inhibition [5]: 18%
303	42449	140	COc1ccc(C#CCO/N=C2\CN3CCC2C3)cc1OC (stereo not given)	–
202	3882	19	Clc1cccc(C#CCO/N=C2\CN3CCC2C3)c1 (stereo not given)	–
–	–	–	Cc1ccccc1C#CCO/N=C1\CN2CCC1C2 (stereo not given)	inhibition [9]: 82%; inhibition [5]: 56%
119	6300	53	Clc1ccc(C#CCO/N=C2\CN3CCC2C3)cc1 (stereo not given)	–

SMILES	Ratio [1]	IC50 [2] [nM]	IC50 [3] [nM]	other results
C(#Cc1ccccc1)CO/N=C1\CN2CCC1C2 (stereo not given)	109	5012	46	inhibition [6]: 0%; PI [7]: 1%; inhibition [8]: 0%
